# Measured values: US20200061062A1, “INHIBITORS OF HUMAN PHOSPHATIDYLINOSITOL 3-KINASE DELTA” (ICOS Corporation, priority 2000, published 2020)
# Where two headings read alike, the source gives them in different places.
# Test system: human B cells
# Test: Antibody production by human B cells (IgG and IgM ELISA)
# Format: cell-based
# Settings: B-cell, IL-2 and PANSORBIN stimulation
# Method: Heparinized blood (200 mL) from healthy volunteers was mixed with an equal volume of D-PBS, layered on 10×10 mL FICOLL-PAQUE® (Pharmacia), and centrifuged at 1600 rpm for 30 min at room temperature. Peripheral blood mononuclear cells (PBMC) were collected from the FICOLL®/serum interface, overlayed on 10 mL fetal bovine serum (FBS) and centrifuged at 800 rpm for 10 min to remove platelets. After washing, cells were incubated with DYNAL® Antibody Mix (B cell kit) (Dynal Corp., Lake Success, N.Y.) for 20 min at 4-8° C. Following the removal of unbound antibody, PBL were mixed with anti-mouse IgG coated magnetic beads (Dynal) for 20 min at 4-8° C. with gentle shaking followed by elimination of labeled non-B cells on the magnetic bead separator. This procedure was repeated once more. The B cells were resuspended in RPMI-1640 with 10% FBS, and kept on ice until further use.
# To study antibody production, B cells were aliquoted at 50-75×10^3 cells/well into 96-well plate with or without inhibitor, to which IL-2 (100 U/mL) and PANSORBIN® (Calbiochem) Staphylococcus aureus cells (1:90,000) were added. […] Samples from each condition (in triplicate) were removed, and analyzed for IgG and IgM, as measured by ELISA. […] Color development was stopped by H2SO4 solution, and plates were read on an ELISA plate reader.
smiles,measurement,setting,value
"O=c1c2ccccc2nc(CSc2ncnc3[nH]cnc23)n1-c1ccccc1Cl [Compound D-000, 3-(2-chlorophenyl)-2-(9H-purin-6-ylsulfanylmethyl)-3H-quinazolin-4-one]",IC50,"FIG. 7, read-out: Half-maximal inhibition of IgG production",~7 µM
same,IC50,"FIG. 7, read-out: Half-maximal inhibition of IgM production",~1 µM
